Square brackets hold non-standard residues; d marks the D form. Ends that are not written are not given here. Lys(Me3) = C[N+](C)(C)CCCC[C@H](N)C(=O)O

Results on one substance are retold here after paper PMC6220849, “Mechanistic and structural studies of KDM‐catalysed demethylation of histone 1 isotype 4 at lysine 26” (Febs Letters, 2018).

One test concerns KDM4A (KDM4A1–359). The test can be described thus: MALDI-TOF MS demethylation activity assay, KDM4A. The class given is biochemical, human. Set-up: key: 🟢: Indicates that clear demethylation activity was observed; 🟡: Indicates that low level demethylation activity was observed (<10% conversion after 1 h); 🔴: Indicates no activity under the stated conditions (1 μM KDM, 10 μM peptide); 🟡*: *Indicates demethylation activity was only observed with 5 μM KDM. Conditions: peptide as substrate, 1 μM KDM, 10 μM peptide, 50 mM HEPES pH 7.5, Fe(II) 10 μM, ascorbate 100 μM, 2OG 200 μM, 1 h at 37 °C. As for the experimental part: (§1) Recombinant proteins (1 μM) were incubated with peptides (10 μM, sequences are given in Table S1) in 50 mM HEPES, pH 7.5 with addition of Fe(II) ammonium sulfate (10 μM), sodium ascorbate (100 μM) and 2‐oxoglutaric acid (200 μM). Reactions with KDM3A and KDM7A also contained 1 mM tris(2‐carboxyethyl)phosphine hydrochloride. No enzyme reactions were included as negative controls. Reactions were incubated for 1 h at 37 °C before being quenched with 1 : 1 (v/v) methanol. Analysis was carried out by MALDI‐TOF MS (Bruker, Billerica, MA, USA), with demethylation observed as mass shifts of 14 Da.
(§2) Given the activity observed with KDM4E and KDM7A, we decided to investigate the intra‐subfamily conservation of this demethylation activity. The demethylation activity of the other subfamily members (KDM4A‐D and KDM7B) was therefore screened. […] Note that as with H3K9, demethylation of the monomethylated H1.4K26 peptide was only observed with KDM4E, under the stated conditions 24.

In another test the test system is KDM6B (KDM6B1141–1590). Put plainly: MALDI-TOF MS demethylation activity assay, KDM6B. The class given is biochemical, human. Set-up: key: 🟢: Indicates that clear demethylation activity was observed; 🟡: Indicates that low level demethylation activity was observed (<10% conversion after 1 h); 🔴: Indicates no activity under the stated conditions (1 μM KDM, 10 μM peptide); 🟡*: *Indicates demethylation activity was only observed with 5 μM KDM. Particulars: peptide as substrate, 1 μM KDM, 10 μM peptide, 50 mM HEPES pH 7.5, Fe(II) 10 μM, ascorbate 100 μM, 2OG 200 μM, 1 h at 37 °C. As for the experimental part: as §1
(§3) The propensity of human JmjC KDMs to catalyse demethylation at H1.4K26 was investigated using recombinant forms of the catalytic domains of representatives of each human JmjC KDM subfamily (KDM2‐7) and fragment peptides (Table S1) 37. Three peptides with identical sequences, corresponding to residues 18–32 of histone H1.4 (H2N‐[…]‐CONH2), but containing either a N ^ε‐tri‐, di‐ or monomethyllysine at K26 were synthesised (Fig. 1B and Table S1). Activity assays monitoring JmjC KDM‐catalysed demethylation of the peptides were then carried out; samples were prepared containing each peptide, 2‐oxoglutarate (2OG), ferrous iron, ascorbate and individual representatives from each JmjC KDM subfamily (KDM2A 38, KDM3A 21, KDM4E 22, KDM5C 39, 40, KDM6B 41, KDM7A 42).

A further test deals with KDM3A (KDM3A515–1317). Put plainly: MALDI-TOF MS demethylation activity assay, KDM3A. Conditions: peptide as substrate, 1 μM KDM, 10 μM peptide, 50 mM HEPES pH 7.5, Fe(II) 10 μM, ascorbate 100 μM, 2OG 200 μM, 1 mM TCEP, 1 h at 37 °C. The class given is biochemical, human. Set-up: key: 🟢: Indicates that clear demethylation activity was observed; 🟡: Indicates that low level demethylation activity was observed (<10% conversion after 1 h); 🔴: Indicates no activity under the stated conditions (1 μM KDM, 10 μM peptide); 🟡*: *Indicates demethylation activity was only observed with 5 μM KDM. As for the experimental part:
as §1, §3

The subject of another test is KDM4C (KDM4C1–359). The test can be described thus: MALDI-TOF MS demethylation activity assay, KDM4C. Particulars: peptide as substrate, 1 μM KDM, 10 μM peptide, 50 mM HEPES pH 7.5, Fe(II) 10 μM, ascorbate 100 μM, 2OG 200 μM, 1 h at 37 °C. The class given is biochemical, human. Details: key: 🟢: Indicates that clear demethylation activity was observed; 🟡: Indicates that low level demethylation activity was observed (<10% conversion after 1 h); 🔴: Indicates no activity under the stated conditions (1 μM KDM, 10 μM peptide); 🟡*: *Indicates demethylation activity was only observed with 5 μM KDM. As for the experimental part: as §1, §2

The target in the next test is T1, recombinant human KDM4A (Homo sapiens, UniProt O75164).
T1 construct: recombinantly expressed as reported either in Escherichia coli (KDM2A1–557 25, KDM4A1–359 26); His6 (N); made in house; host or cells: Escherichia coli
T1 sequence (O75164 1-359): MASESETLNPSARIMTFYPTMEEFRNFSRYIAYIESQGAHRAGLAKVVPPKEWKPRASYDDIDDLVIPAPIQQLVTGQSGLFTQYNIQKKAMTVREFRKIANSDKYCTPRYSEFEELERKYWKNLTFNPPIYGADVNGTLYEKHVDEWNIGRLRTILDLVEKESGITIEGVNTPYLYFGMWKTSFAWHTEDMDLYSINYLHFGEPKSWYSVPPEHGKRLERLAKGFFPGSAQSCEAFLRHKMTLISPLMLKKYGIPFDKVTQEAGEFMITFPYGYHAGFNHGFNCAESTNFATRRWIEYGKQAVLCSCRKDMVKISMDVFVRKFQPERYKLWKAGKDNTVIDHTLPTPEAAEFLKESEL
Put plainly: Formaldehyde dehydrogenase (FDH)-coupled demethylation assay, Michaelis–Menten kinetics. Particulars: peptide as substrate. Type of test: biochemical. On the procedure:
Kinetic parameters for KDM4 enzymes were determined by use of an FDH (formaldehyde dehydrogenase)/NAD^+‐coupled) assay for quantification of the formaldehyde reaction byproduct, as previously described 27. […] Specific activities were measured using a 100‐μM peptide. For Michaelis–Menten experiments, peptide concentrations were varied. Reactions were monitored using a PHERAstar FS plate reader (BMG Labtech, Ortenberg, Germany) with 355 nm excitation and 460 nm emission. Kinetic parameters were calculated from the reaction rate during the initial linear phase of formaldehyde production, which were used to calculate specific activities or fitted to Michaelis–Menten equations using […] PRISM (GraphPad Software, La Jolla, CA, USA).
Michaelis–Menten kinetics were then conducted with KDM4A. Samples containing KDM4A, 2OG, ascorbate, H1.4K26me3 peptide, NAD^+ and FDH were analysed over time and kinetic parameters were determined by recording the initial reaction rates of NADH production (corresponding to enzymatic production of formaldehyde) at varying peptide concentration.

Setting [1] is: concentration varied, FDH/NAD+-coupled fluorescence assay, 50 mM HEPES pH 7.5, 0.01% Tween-20, 2OG 200 μM, KDM4A, mean and standard deviation of three independent replicates, SD.

Take “TPVKKKAR[Lys(Me3)]SAGAAK [H1.4(18–32)K26me3, peptide of residues 18–32 of histone H1.4 with N ε-trimethyllysine at K26]”: the “demethylation activity on methylated H1.4 peptide” value is “🟢” in the test with KDM4A (KDM4A1–359), “🔴” in the test with KDM6B (KDM6B1141–1590), “🔴” in the test with KDM3A (KDM3A515–1317) and “🟢” with KDM4C (KDM4C1–359). For the same substance, the “K M” value on recombinant human KDM4A (setting [1]) was 32.3 ± 6.4 µM. The k cat on recombinant human KDM4A (setting [1]) amounted to 0.32 ± 0.049 s⁻¹. Moreover, the k cat/K M on recombinant human KDM4A (FDH-coupled assay, ratio of k cat (s^−1) and K M (μM)) came to 9800 M⁻¹ s⁻¹.
